Data taken from PubChem BioAssay (NCI).
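The compound was tested at five concentrations on cells cultured in 96-well plates, with a 48-hour exposure period. GI50 = concentration required for 50% inhibition of growth. TGI is the concentration that stops growth completely.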

Key:
Test in all cases: NCI tumour cell line growth inhibition, 48 h
HOP-92 NSCLC = tested on: HOP-92 NSCLC
MOLT-4 leukemia = tested on: MOLT-4 leukemia
LOX IMVI melanoma = tested on: LOX IMVI melanoma
NCI-H460 lung = tested on: NCI-H460 lung
HCT-116 colon = tested on: HCT-116 colon
T-47D breast = tested on: T-47D breast
HL-60(TB) leukemia = tested on: HL-60(TB) leukemia
SN12C renal = tested on: SN12C renal
MDA-MB-231 breast = tested on: MDA-MB-231 breast
MDA-N = tested on: MDA-N

SMILES	TGI (HOP-92 NSCLC) [µM]	TGI (MOLT-4 leukemia) [µM]	TGI (LOX IMVI melanoma) [µM]	TGI (NCI-H460 lung) [µM]	TGI (HCT-116 colon) [µM]	TGI (T-47D breast) [µM]	TGI (HL-60(TB) leukemia) [µM]	TGI (SN12C renal) [µM]	TGI (MDA-MB-231 breast) [µM]	TGI (MDA-N) [µM]	GI50 (SN12C renal) [µM]	GI50 (HOP-92 NSCLC) [µM]	GI50 (MOLT-4 leukemia) [µM]	GI50 (LOX IMVI melanoma) [µM]	GI50 (T-47D breast) [µM]	GI50 (MDA-MB-231 breast) [µM]	GI50 (HL-60(TB) leukemia) [µM]
Cc1ccnc(NC(=S)Nc2ccc([N+](=O)[O-])cc2)c1	> 100	> 100	> 100	> 100	> 100	> 100	> 100	–	–	–	–	–	–	–	–	–	–
O=C(NN1C(=O)CS(=O)(=O)C1c1ccc(C(F)(F)F)cc1)c1ccncc1 (configuration not stated)	> 100	> 100	> 100	> 100	> 100	–	> 100	> 100	–	–	–	–	–	–	–	–	–
Cc1cc(C)nc(NC(=S)Nc2ccc([N+](=O)[O-])cc2)c1	> 100	> 100	> 100	> 100	> 100	> 100	> 100	–	> 100	–	–	–	–	–	–	–	–
O=C(NCCCl)O/N=C/c1cccnc1	> 100	> 100	> 100	> 100	> 100	–	> 100	> 100	–	–	–	–	–	–	–	–	–
COc1cc2c(cc1OCCCN1C(=O)c3cccc4cccc(c34)C1=O)N=C[C@@H]1CCCN1C2=O	> 58.2	> 65.4	> 100	> 100	> 100	> 100	–	> 100	> 100	> 100	–	–	–	–	–	–	–
COc1cc2c(cc1OCCCCCN1CCN(c3ncnc4ccccc34)CC1)N=CC1CCCN1C2=O (configuration not stated)	0.069	0.0706	–	–	–	0.0428	–	4.65	0.0604	–	0.03	0.0224	0.0194	0.0167	0.0139	0.0193	0.0254
Cc1ccsc1/C=N/Nc1cnccn1	> 100	> 100	> 100	–	> 100	> 100	> 100	> 100	> 100	–	–	–	–	–	–	–	–
O[C@H]1[C@H](O)[C@@H](O)CN2CC[C@H](O)[C@H]12	> 100	> 100	> 100	> 100	> 100	–	> 39.8	> 100	–	–	–	–	–	–	–	–	–
C=C(CN(C)C)C(=O)c1ccc(C(=O)C(=C)CN(C)C)cc1	> 100	> 100	> 100	> 100	> 100	–	> 100	> 100	–	–	–	–	–	–	–	–	–
CN(C)Cc1cc(C(=O)/C=C/c2ccc([N+](=O)[O-])cc2)cc(CN(C)C)c1O	26.2	51.2	5.5	–	13.1	32	5.46	20.2	28.5	24.7	–	–	–	–	–	–	–
Clc1sc(Cl)c2c1[C@@H](Cl)C[C@@H]2Br	> 100	43.9	> 100	> 100	> 100	> 100	–	> 100	> 100	> 100	–	–	–	–	–	–	–
Cc1c2c(c(C)n1-c1ccccc1)C(=O)N(CCN1CCN(c3cccc(C(F)(F)F)c3)CC1)C2=O	> 100	> 100	> 100	> 100	> 100	> 100	–	> 100	> 100	> 100	–	–	–	–	–	–	–
O=C(CN1C(=O)CC(c2ccccc2)(c2ccccc2)C1=O)N1CCN(CCO)CC1	> 100	> 100	> 100	–	> 100	> 100	–	> 100	> 100	–	–	–	–	–	–	–	–
COc1cc(O)c2c(=O)c(OC)c(-c3ccc(OC)c(O)c3)oc2c1	–	> 100	> 100	> 100	> 100	> 100	> 100	> 100	> 100	> 100	–	–	–	–	–	–	–
COC(=O)c1ccccc1CC1Cc2cccc(C)c2C1=O (configuration not stated)	80.6	51.2	39.6	> 100	> 100	82.7	–	> 100	> 100	> 100	–	–	–	–	–	–	–
O=C1C(=Nc2ccc(Nc3ccccc3)cc2)Oc2ccccc21	–	6.39	4.4	30.5	3.18	9.57	4.9	4.62	4.51	7.16	–	–	–	–	–	–	–
COc1cc(C2c3cc4c(cc3[C@@H](Nc3ccccc3)C3COC(=O)[C@H]23)OCO4)cc(OC)c1O (some centres not stated)	11.7	0.13	3.38	2.86	6.27	–	1.09	6.03	–	–	–	–	–	–	–	–	–
Cc1cc(OP2(=O)NCc3ncccc3O2)ccc1Cl (configuration not stated)	> 100	> 100	> 100	> 100	> 100	> 100	–	> 100	> 100	> 100	–	–	–	–	–	–	–
O=C1c2cccc3cccc(c23)C(=O)N1CCCNCCCCNCCCNCCCN1C(=O)c2cccc3cccc(c23)C1=O	2.37	–	–	1.42	1.57	–	1.54	1.8	2.36	2.11	–	–	–	–	–	–	–
CN1CC[C@]2(c3cccc(O)c3)CC(=O)/C(=C/c3ccccc3)[C@@H]1C2	9.93	5.59	4.71	7.23	5.94	–	5.33	13.6	7.29	3.94	–	–	–	–	–	–	–
CSc1nc2c(c(N(C)C)n1)C(O)n1c(nc3ccccc31)S2 (configuration not stated)	> 74.5	> 100	75.5	> 100	> 62.1	> 85.3	–	> 100	> 100	> 100	–	–	–	–	–	–	–
CCOc1c(OC)cc(-c2nc3n(n2)C(=O)C(CC)S3)cc1OC (configuration not stated)	–	> 10	> 10	> 10	> 10	> 10	> 10	> 10	> 10	> 10	–	–	–	–	–	–	–
Nc1ncc2c(n1)-c1ccccc1OC2N1CCCC1 (configuration not stated)	> 100	> 100	> 100	> 100	> 100	–	51.7	> 100	> 100	> 100	–	–	–	–	–	–	–
